In ChEMBL document CHEMBL1201862, “PubChem BioAssay data set” (2004):
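Tested at 5 concentrations; 48 h exposure; 96-well plates; endpoints linearly interpolated, else capped at highest concentration. GI50 = concentration required for 50% inhibition of growth.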 The source made the active and inactive calls. No stated cut-off is given here; in the data, active = GI50 up to about 1.1 µM and inactive = higher.

Experiments:
Assay in all cases: NCI-60 cell line screen, 48 h
SK-MEL-5 = tested on: SK-MEL-5
KM12 = tested on: KM12
HCT-15 = tested on: HCT-15
CAKI-1 = tested on: CAKI-1
HOP-92 = tested on: HOP-92
MOLT-4 = tested on: MOLT-4
OVCAR-4 = tested on: OVCAR-4
K562 = tested on: K562
SF-268 = tested on: SF-268
OVCAR-3 = tested on: OVCAR-3
A498 = tested on: A498
HT-29 = tested on: HT-29
SF-295 = tested on: SF-295
HCT-116 = tested on: HCT-116
SNB-75 = tested on: SNB-75
UO-31 = tested on: UO-31
SNB-19 = tested on: SNB-19
HCC 2998 = tested on: HCC 2998
DMS-114 = tested on: DMS-114
SK-MEL-2 = tested on: SK-MEL-2

Structure (SMILES) | GI50 (SK-MEL-5) | GI50 (KM12) | GI50 (HCT-15) [µM] | GI50 (CAKI-1) | GI50 (HOP-92) | GI50 (MOLT-4) | GI50 (OVCAR-4) | GI50 (K562) | GI50 (SF-268) | GI50 (OVCAR-3) | GI50 (A498) | GI50 (HT-29) | GI50 (SF-295) | GI50 (HCT-116) | GI50 (SNB-75) | GI50 (UO-31) | GI50 (SNB-19) | GI50 (HCC 2998) | GI50 (DMS-114) | GI50 (SK-MEL-2)
O=C(O)CNc1ccc(Cl)c(Cl)c1 | 26.5 µM (inactive) | 19.1 µM (inactive) | 8.83 | 17.9 µM (inactive) | 15.8 µM (inactive) | 29.6 µM (inactive) | 31.6 µM (inactive) | 25.1 µM (inactive) | 28.9 µM (inactive) | 25.9 µM (inactive) | 30.4 µM (inactive) | 40.6 µM (inactive) | 24.6 µM (inactive) | 19.2 µM (inactive) | 26.6 µM (inactive) | 24.9 µM (inactive) | 34.5 µM (inactive) |  |  | 
CN(C)CCNC(=O)c1cccc2[nH]c(-c3ccccn3)nc12 | 21.7 µM (inactive) | 41.6 µM (inactive) | 37.2 | 21.5 µM (inactive) | 19.6 µM (inactive) | 20.7 µM (inactive) | 27.5 µM (inactive) | > 55.6 µM (inactive) | 28 µM (inactive) | 30.7 µM (inactive) | 36.6 µM (inactive) | 19.6 µM (inactive) | 31 µM (inactive) | 19.4 µM (inactive) | 21.2 µM (inactive) | 16.8 µM (inactive) | 42.2 µM (inactive) | 49 µM (inactive) | 27 µM (inactive) | 39.7 µM (inactive)
CCC(C)C1NC(=O)CNC(=O)C2Cc3c([nH]c4cc(O)ccc34)[S+]([O-])CC(NC(=O)CNC1=O)C(=O)NC(CC(=O)O)C(=O)N1CC(O)CC1C(=O)NC(C(C)C(O)CO)C(=O)N2 (stereo not given) | 2.43 µM (inactive) | 6.46 µM (inactive) | 10.4 |  | 1.68 µM (inactive) | 3.72 µM (inactive) | 2.07 µM (inactive) | 3.93 µM (inactive) | 1.64 µM (inactive) | 2.47 µM (inactive) | 2.83 µM (inactive) | 28.8 µM (inactive) | 1.51 µM (inactive) | 6.37 µM (inactive) | 0.918 µM (active) | 1.55 µM (inactive) | 1.3 µM (inactive) | 0.653 µM (active) | 0.759 µM (active) | 2.08 µM (inactive)
COc1ccc2oc(=N)c(C(=O)Nc3ccccc3)cc2c1 | 25.8 µM (inactive) | 24.7 µM (inactive) | 31 | 5.61 µM (inactive) |  | 13.8 µM (inactive) | 45.6 µM (inactive) | 1.26 µM (inactive) | 20.6 µM (inactive) | 30.5 µM (inactive) | 17.1 µM (inactive) | 64.6 µM (inactive) | 16 µM (inactive) | 25.7 µM (inactive) | 10.4 µM (inactive) | 45 µM (inactive) | 25.2 µM (inactive) |  |  | 17.2 µM (inactive)
C=CC(Cl)(CBr)CCC(Br)C(C)(C)Cl (stereo not given) | 13.1 µM (inactive) |  | 18.3 |  | 19.5 µM (inactive) | 3.23 µM (inactive) | 16.6 µM (inactive) | 14.9 µM (inactive) | 20.8 µM (inactive) | 17.5 µM (inactive) | 14.1 µM (inactive) | 15.3 µM (inactive) | 14.8 µM (inactive) | 12.8 µM (inactive) | 19.2 µM (inactive) | 15.4 µM (inactive) | 16.7 µM (inactive) | 14.8 µM (inactive) |  | 19.2 µM (inactive)
CN(CCO)/N=N/c1n[nH]cc1C(N)=O | > 100 µM (inactive) | > 100 µM (inactive) | > 100 | > 100 µM (inactive) | > 100 µM (inactive) | > 100 µM (inactive) | > 100 µM (inactive) | > 100 µM (inactive) | > 100 µM (inactive) | > 100 µM (inactive) | > 100 µM (inactive) | > 100 µM (inactive) | > 100 µM (inactive) | > 100 µM (inactive) | > 100 µM (inactive) | > 100 µM (inactive) | > 100 µM (inactive) | > 100 µM (inactive) | > 100 µM (inactive) | > 100 µM (inactive)
O=[N+]([O-])c1cccc2c1[nH]c1c(-c3ccccc3)nccc12 | 1.53 µM (inactive) | 3.03 µM (inactive) | 2.61 |  | 0.622 µM (active) | 1.71 µM (inactive) | 2.02 µM (inactive) | 1.99 µM (inactive) | 4.04 µM (inactive) | 1.36 µM (inactive) | 3.72 µM (inactive) | 1.58 µM (inactive) | 3.08 µM (inactive) | 2.39 µM (inactive) | 2.4 µM (inactive) | 1.11 µM (active) | 3.19 µM (inactive) | 3.31 µM (inactive) | 1.27 µM (inactive) | 1.07 µM (active)
COC(=O)c1ccc(OCc2ccc3nc(OC)c(OC)nc3c2)cc1 | > 100 µM (inactive) | > 100 µM (inactive) | > 100 | > 100 µM (inactive) |  | > 10 µM (inactive) | > 100 µM (inactive) | > 100 µM (inactive) | > 100 µM (inactive) | > 100 µM (inactive) |  | > 100 µM (inactive) | 82.6 µM (inactive) | 89.9 µM (inactive) | > 100 µM (inactive) | > 100 µM (inactive) | > 100 µM (inactive) | > 100 µM (inactive) | 52.8 µM (inactive) | > 100 µM (inactive)
O=C(CC1OC(O)C(Cl)=C1Cl)c1cccnc1 (stereo not given) | 83.8 µM (inactive) | > 100 µM (inactive) | > 41.1 | > 100 µM (inactive) | > 100 µM (inactive) | > 100 µM (inactive) | > 100 µM (inactive) | > 100 µM (inactive) | > 68.4 µM (inactive) | > 100 µM (inactive) | > 100 µM (inactive) | > 42.3 µM (inactive) | > 100 µM (inactive) | > 39.8 µM (inactive) | > 100 µM (inactive) | > 100 µM (inactive) | > 100 µM (inactive) | > 71.8 µM (inactive) | > 41.1 µM (inactive) | 
CC(=O)NC1C(O)CC(OCCCSCCN)(C(=O)O)OC1C(O)C(O)CO (stereo not given) | > 100 µM (inactive) | > 100 µM (inactive) | > 100 | > 100 µM (inactive) | > 100 µM (inactive) | > 100 µM (inactive) | > 100 µM (inactive) |  | > 100 µM (inactive) |  | > 100 µM (inactive) | > 100 µM (inactive) | > 100 µM (inactive) | > 100 µM (inactive) | > 100 µM (inactive) |  | > 100 µM (inactive) | > 100 µM (inactive) | > 100 µM (inactive) | > 100 µM (inactive)
CCOC(=O)C(C#N)(Cc1c[nH]c2ccccc12)NC(C)=O (stereo not given) | > 100 µM (inactive) | > 100 µM (inactive) | > 100 | > 100 µM (inactive) | > 100 µM (inactive) | > 100 µM (inactive) | > 100 µM (inactive) | > 100 µM (inactive) | > 100 µM (inactive) | > 100 µM (inactive) |  | > 100 µM (inactive) | > 100 µM (inactive) | > 100 µM (inactive) | > 100 µM (inactive) | > 100 µM (inactive) |  | > 100 µM (inactive) | > 100 µM (inactive) | > 100 µM (inactive)
O=C1C2CN(Cc3ccccc3)CC1CN(CC1CC1)C2 | > 100 µM (inactive) | > 100 µM (inactive) | > 100 | > 100 µM (inactive) | > 100 µM (inactive) | > 100 µM (inactive) | > 100 µM (inactive) | > 100 µM (inactive) | > 100 µM (inactive) | > 100 µM (inactive) | > 100 µM (inactive) | > 100 µM (inactive) | > 100 µM (inactive) |  | > 100 µM (inactive) | > 100 µM (inactive) | > 100 µM (inactive) |  | > 100 µM (inactive) | > 100 µM (inactive)
COc1cc([C@@H]2c3cc4c(cc3[C@@H](OC3OC5COC(C)OC5C(O)C3O)[C@H]3COC(=O)[C@H]23)OCO4)cc(OC)c1O (stereo not given in full) | 5.48 µM (inactive) | 18.6 µM (inactive) | 17.6 | 4.2 µM (inactive) | 9.2 µM (inactive) | 0.547 µM (active) | 113 µM (inactive) |  | 7.6 µM (inactive) | 39.4 µM (inactive) | 7.14 µM (inactive) | 28.8 µM (inactive) | 5.92 µM (inactive) | 13.6 µM (inactive) | 12.1 µM (inactive) | 42.3 µM (inactive) |  | 9.02 µM (inactive) | 5.57 µM (inactive) | 21.7 µM (inactive)
OCC#CCNCl | > 100 µM (inactive) | > 100 µM (inactive) | > 100 |  | > 100 µM (inactive) | > 100 µM (inactive) | > 100 µM (inactive) | > 100 µM (inactive) | > 100 µM (inactive) | > 100 µM (inactive) | > 100 µM (inactive) | > 28.1 µM (inactive) | > 100 µM (inactive) | > 100 µM (inactive) | > 100 µM (inactive) | > 100 µM (inactive) | > 100 µM (inactive) | > 100 µM (inactive) | > 100 µM (inactive) | > 100 µM (inactive)
COC(=O)C(Cc1cc(OC)c(OC)c(OC)c1)(NC(=O)c1ccccc1)P(=O)(OC)OC (stereo not given) | > 100 µM (inactive) | > 100 µM (inactive) | > 100 | > 100 µM (inactive) | > 100 µM (inactive) | > 100 µM (inactive) | > 100 µM (inactive) | > 100 µM (inactive) | > 100 µM (inactive) |  | > 100 µM (inactive) | > 100 µM (inactive) | > 100 µM (inactive) | > 100 µM (inactive) | > 100 µM (inactive) | > 100 µM (inactive) | > 100 µM (inactive) | > 100 µM (inactive) | > 100 µM (inactive) | > 100 µM (inactive)
